The record followed here is patent publication US20240261274A1, “TREATMENT OF MYC-DRIVEN CANCERS WITH GSPT1 DEGRADERS” (MONTE ROSA THERAPEUTICS, INC., priority 2021, published 2024).

What all share (format): cell-based
Common to all, as to conditions: MM1 S cells, 0.3, 3 and 30 μM, 6 hours

For one experiment, the target named is GSPT1 (Homo sapiens, UniProt P15170+Q96SW2). Briefly: Selectivity western blot assay in MM1 S cells, GSPT1. Further details: endogenous in cells; host or cells: MM1 S (ATCC CRL-2974). Here is the method:
(§1) MM1 S cells were purchased from ATCC (cat. Number CRL-2974), sub-cultured in 90% RPMI 1640 with 10% FBS, supplemented with 1×P/S and incubated at 37° C., 5% CO2. Compounds were stored as 10 mM DMSO stock. For the assay, MM1 S cells (3 million cells/well) were plated in 6-well plates and incubated over night. Cells were treated with respective compounds using a serial dilution: 0.3 μM, 3 μM and 30 μM as well as a vehicle only (DMSO) control for 6 hours. Media with suspension cells was subsequently transferred to 15 mL conical tubes, wells rinsed twice with ice-cold PBS and merged with cell suspension in respective 15 mL conical tube. Cells were spinned down, supernatant aspirated, pellets resuspended in ice-cold PBS and transferred to microtubes. Cells were spinned down, supernatant aspirated and pellets resuspended in 120 μL RIPA lysis buffer supplemented with protease and phosphatase inhibitors. Cell lysates were incubated on ice for 20 minutes followed by centrifugation at >20,000×g for 5 min. Supernatants were transferred to fresh microtubes and stored at −80° C. Total protein concentration was determined using a BCA assay with a BSA standard curve and concentration of all samples was adjusted to 1 mg/mL. 25 μL 4×LDS sample buffer supplemented with 100 mM DTT was added to 75 μL sample. Samples were centrifuged (8,000×g, 1 min) and incubated at 95° C. for 5 min followed by another centrifugation step (8,000×g, 1 min). 20 μL of each sample was loaded on a 4-12% gel alongside a protein molecular weight marker. Gels were run in the presence of MOPS buffer at 80 Volts for 30 min, followed by 120 Volts for 1.5 h and proteins subsequently transferred onto nitrocellulose membranes at 20 Volts for 7 min using an iBlot2 Gel Transfer Device. Membranes were then cut horizontally into two pieces, covering 80-50 kDa and 50-25 kDa. Blocking the membranes was performed by gently shaking in 5% (w/v) skim milk in TSB-T for 1 hr at room temperature. All primary antibodies were used at a 1/1000 in 5% (w/v) BSA dissolved in TBST and incubated with membranes over night at 4° C. After three washes with 1×TBST for 5 min, HRP-coupled secondary antibodies diluted in 5% (w/v) BSA/TBST (Goat Anti-Rb IgG, dil. 1/10,000; Goat Anti-Mouse IgG, dil. 1/5000) were added for 1 hr at room temperature. After three washes with 1×TBST (5 minutes each), membranes were incubated with ECL reagent for 1 min at room temperature. Chemiluminescence signals were then detected using a LAS-4000 system with default settings and signals quantified using Image Studio Lite software (version 5.2). Membrane parts previously incubated with antibody against CK1 alpha were stripped off antibodies by incubating with stripping buffer for 30 minutes followed by three washed with TBST (5 min each), blocking with 5% (w/v) skim milk for 1 hr, and incubation with primary antibody against uGAPDH overnight at 4° C. Subsequent washes, incubation with secondary antibody and signal acquisition were performed as described above.
A general note: In western blotting, separated proteins are transferred to a membrane and probed.

Another experiment deals with T1, IKZF3 (Homo sapiens, UniProt Q96SW2+Q9UKT9).
T1 construct: endogenous in cells; host or cells: MM1 S (ATCC CRL-2974)
Briefly: Selectivity western blot assay in MM1 S cells, IKZF3. Here is the method: as §1

For another experiment, the target named is T2, CK1alpha (Homo sapiens, UniProt P48729+Q96SW2).
T2 construct: endogenous in cells; host or cells: MM1 S (ATCC CRL-2974)
Briefly: Selectivity western blot assay in MM1 S cells, CK1alpha. Set-up: key: A represents no degradation observed at 30 μM; B represents trace degradation at 30 μM (below 20%); C represents weak degradation at 30 μM (below 50%); D represents degradation at 30 μM (>90%); E represents degradation at 3 μM (>90%); F represents degradation at 0.3 μM (>90%). Here is the method:
as §1

In the next experiment the target is T3, IKZF1 (Homo sapiens, UniProt Q13422+Q96SW2).
T3 construct: endogenous in cells; host or cells: MM1 S (ATCC CRL-2974)
As to the kind of experiment: Selectivity western blot assay in MM1 S cells, IKZF1. Further details: key: A represents no degradation observed at 30 μM; B represents trace degradation at 30 μM (below 20%); C represents weak degradation at 30 μM (below 50%); D represents degradation at 30 μM (>90%); E represents degradation at 3 μM (>90%); F represents degradation at 0.3 μM (>90%). As to the method: as §1

T2 sequence (P48729 whole entry): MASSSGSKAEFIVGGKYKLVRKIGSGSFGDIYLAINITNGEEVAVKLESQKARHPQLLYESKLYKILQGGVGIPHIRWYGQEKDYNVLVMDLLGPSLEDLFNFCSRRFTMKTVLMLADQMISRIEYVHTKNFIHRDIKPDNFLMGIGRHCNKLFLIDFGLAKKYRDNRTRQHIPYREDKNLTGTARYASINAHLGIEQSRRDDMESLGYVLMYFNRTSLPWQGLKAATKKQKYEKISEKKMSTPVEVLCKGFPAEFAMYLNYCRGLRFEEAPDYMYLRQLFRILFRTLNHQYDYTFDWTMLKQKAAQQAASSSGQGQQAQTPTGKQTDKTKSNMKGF
T2 sequence (Q96SW2 whole entry): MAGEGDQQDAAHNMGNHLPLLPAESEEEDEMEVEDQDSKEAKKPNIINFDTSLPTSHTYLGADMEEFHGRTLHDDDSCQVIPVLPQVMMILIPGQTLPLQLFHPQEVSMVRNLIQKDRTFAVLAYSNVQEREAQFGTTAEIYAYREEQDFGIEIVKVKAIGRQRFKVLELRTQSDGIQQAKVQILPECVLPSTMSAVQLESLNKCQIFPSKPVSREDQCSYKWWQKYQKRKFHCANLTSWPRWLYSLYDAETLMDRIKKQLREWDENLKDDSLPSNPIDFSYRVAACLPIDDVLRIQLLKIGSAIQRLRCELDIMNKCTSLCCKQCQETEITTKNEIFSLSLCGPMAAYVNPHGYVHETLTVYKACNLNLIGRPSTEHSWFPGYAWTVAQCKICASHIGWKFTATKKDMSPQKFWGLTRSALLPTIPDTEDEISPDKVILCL
T2 sequence (Q16531 whole entry partner): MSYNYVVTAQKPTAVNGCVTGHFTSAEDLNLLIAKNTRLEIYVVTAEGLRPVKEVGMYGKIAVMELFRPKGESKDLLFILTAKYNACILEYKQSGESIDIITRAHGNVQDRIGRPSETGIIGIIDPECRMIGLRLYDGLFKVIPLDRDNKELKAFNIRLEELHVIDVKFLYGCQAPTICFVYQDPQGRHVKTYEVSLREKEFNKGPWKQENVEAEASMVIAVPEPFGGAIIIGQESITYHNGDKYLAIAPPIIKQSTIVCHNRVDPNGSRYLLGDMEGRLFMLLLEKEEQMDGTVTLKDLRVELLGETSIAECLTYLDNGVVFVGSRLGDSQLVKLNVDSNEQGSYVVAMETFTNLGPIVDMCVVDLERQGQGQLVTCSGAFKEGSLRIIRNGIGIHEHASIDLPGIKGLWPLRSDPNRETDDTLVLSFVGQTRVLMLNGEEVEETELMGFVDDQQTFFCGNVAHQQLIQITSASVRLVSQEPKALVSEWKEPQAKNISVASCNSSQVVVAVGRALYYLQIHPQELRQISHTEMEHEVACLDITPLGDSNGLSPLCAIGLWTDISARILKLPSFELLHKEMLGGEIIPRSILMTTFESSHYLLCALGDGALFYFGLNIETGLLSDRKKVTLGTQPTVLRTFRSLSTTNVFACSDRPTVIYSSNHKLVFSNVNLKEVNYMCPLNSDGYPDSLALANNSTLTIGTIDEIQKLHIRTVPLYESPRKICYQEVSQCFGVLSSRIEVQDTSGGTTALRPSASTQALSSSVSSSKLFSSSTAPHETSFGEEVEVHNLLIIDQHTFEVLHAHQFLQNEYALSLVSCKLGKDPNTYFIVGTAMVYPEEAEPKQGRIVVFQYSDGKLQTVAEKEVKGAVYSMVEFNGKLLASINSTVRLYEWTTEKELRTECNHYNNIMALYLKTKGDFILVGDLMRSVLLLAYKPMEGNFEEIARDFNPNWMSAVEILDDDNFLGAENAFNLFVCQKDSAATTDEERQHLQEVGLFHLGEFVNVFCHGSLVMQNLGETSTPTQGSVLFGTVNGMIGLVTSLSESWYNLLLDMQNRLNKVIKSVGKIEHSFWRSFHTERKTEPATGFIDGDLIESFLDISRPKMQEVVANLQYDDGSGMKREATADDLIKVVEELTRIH
GSPT1, sequence (P15170 whole entry): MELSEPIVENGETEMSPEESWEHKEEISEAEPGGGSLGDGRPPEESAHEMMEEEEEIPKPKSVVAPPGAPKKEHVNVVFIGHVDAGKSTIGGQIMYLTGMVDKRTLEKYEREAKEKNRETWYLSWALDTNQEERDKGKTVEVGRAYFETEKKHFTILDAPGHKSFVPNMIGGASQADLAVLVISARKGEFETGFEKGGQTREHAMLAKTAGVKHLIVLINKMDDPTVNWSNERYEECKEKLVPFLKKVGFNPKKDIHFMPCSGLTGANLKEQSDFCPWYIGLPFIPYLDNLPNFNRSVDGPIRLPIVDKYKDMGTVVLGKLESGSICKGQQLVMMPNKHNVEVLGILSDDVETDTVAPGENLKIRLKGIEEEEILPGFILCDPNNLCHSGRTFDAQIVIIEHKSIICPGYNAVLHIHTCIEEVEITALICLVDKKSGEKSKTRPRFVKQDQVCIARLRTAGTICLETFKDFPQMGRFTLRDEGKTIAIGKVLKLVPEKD
GSPT1, sequence (Q96SW2 whole entry): as the sequence (Q96SW2 whole entry) above
GSPT1, sequence (Q16531 whole entry partner): as the sequence (Q16531 whole entry partner) above
T3 sequence (Q13422 whole entry): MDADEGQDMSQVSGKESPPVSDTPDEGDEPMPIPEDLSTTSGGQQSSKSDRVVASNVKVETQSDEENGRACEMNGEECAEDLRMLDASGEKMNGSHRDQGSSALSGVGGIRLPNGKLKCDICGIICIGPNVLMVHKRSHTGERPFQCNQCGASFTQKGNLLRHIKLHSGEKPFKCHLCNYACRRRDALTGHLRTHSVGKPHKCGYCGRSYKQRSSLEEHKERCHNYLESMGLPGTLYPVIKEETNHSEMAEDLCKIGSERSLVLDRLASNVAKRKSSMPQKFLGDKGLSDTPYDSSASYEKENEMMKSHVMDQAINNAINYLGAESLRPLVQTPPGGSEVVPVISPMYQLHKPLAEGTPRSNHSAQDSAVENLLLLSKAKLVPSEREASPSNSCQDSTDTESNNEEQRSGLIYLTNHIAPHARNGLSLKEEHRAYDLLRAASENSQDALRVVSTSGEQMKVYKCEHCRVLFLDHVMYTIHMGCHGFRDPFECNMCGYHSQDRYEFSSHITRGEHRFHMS
T3 sequence (Q96SW2 whole entry): as the sequence (Q96SW2 whole entry) above
T3 sequence (Q16531 whole entry partner): as the sequence (Q16531 whole entry partner) above
T1 sequence (Q9UKT9 whole entry): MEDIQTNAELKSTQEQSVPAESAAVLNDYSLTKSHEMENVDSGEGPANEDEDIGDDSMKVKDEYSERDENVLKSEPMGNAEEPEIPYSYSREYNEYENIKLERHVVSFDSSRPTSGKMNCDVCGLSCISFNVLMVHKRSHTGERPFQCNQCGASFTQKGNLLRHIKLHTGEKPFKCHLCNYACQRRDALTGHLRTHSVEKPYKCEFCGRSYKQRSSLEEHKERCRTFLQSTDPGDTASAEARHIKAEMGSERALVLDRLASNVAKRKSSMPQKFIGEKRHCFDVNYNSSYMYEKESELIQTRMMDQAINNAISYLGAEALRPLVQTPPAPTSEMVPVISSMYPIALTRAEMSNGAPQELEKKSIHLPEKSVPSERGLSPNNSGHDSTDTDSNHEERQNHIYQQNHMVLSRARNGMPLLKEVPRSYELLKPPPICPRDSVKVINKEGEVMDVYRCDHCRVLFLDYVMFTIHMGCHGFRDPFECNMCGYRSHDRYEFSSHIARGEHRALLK
T1 sequence (Q96SW2 whole entry): as the sequence (Q96SW2 whole entry) above
T1 sequence (Q16531 whole entry partner): as the sequence (Q16531 whole entry partner) above

On to `Cc1ccc(NC(=O)OCc2ccc3c(c2)C(=O)N(C2CCC(=O)NC2=O)C3)cc1Cl` (stereo not drawn) [Compound 210], for which, on GSPT1, the GSPT1 degradation result was “D (D represents degradation at 30 μM (>90%))”. Moreover, on IKZF3, the IKZF3 degradation entry is reported as “B (B represents trace degradation at 30 μM (below 20%))”. On CK1alpha, the CK1alpha degradation result was “B (B represents trace degradation at 30 μM (below 20%))”. In addition, at IKZF1, the IKZF1 degradation entry was “A”.

As for `Cc1c(Cl)cc(NC(=O)NCc2ccc3c(c2)C(=O)N(C2CCC(=O)NC2=O)C3)cc1CN1C2CCC1COC2` (stereo not drawn) [Compound 138], the GSPT1 degradation result on GSPT1 was “F (F represents degradation at 0.3 μM (>90%))”. The IKZF3 degradation result on IKZF3 was “B (B represents trace degradation at 30 μM (below 20%))”. The CK1alpha degradation entry at CK1alpha is given as “A”. Moreover, the IKZF1 degradation result on IKZF1 was “C (C represents weak degradation at 30 μM (below 50%))”.

Take `Cc1ccc(NC(=O)NCc2ccc3c(c2)C(=O)N(C2CCC(=O)NC2=O)C3)cc1Cl` (stereo not drawn) [Compound 8]: the GSPT1 degradation entry at GSPT1 was “F (F represents degradation at 0.3 μM (>90%))”. In addition, the IKZF3 degradation entry on IKZF3 is “B (B represents trace degradation at 30 μM (below 20%))”. Besides, the CK1alpha degradation entry at CK1alpha is given as “A”. In addition, the IKZF1 degradation result at IKZF1 was “A”.
